One assay has as its target T1, heparanase (Homo sapiens, UniProt Q9Y251).
T1 sequence (Q9Y251 158-543 limits assumed): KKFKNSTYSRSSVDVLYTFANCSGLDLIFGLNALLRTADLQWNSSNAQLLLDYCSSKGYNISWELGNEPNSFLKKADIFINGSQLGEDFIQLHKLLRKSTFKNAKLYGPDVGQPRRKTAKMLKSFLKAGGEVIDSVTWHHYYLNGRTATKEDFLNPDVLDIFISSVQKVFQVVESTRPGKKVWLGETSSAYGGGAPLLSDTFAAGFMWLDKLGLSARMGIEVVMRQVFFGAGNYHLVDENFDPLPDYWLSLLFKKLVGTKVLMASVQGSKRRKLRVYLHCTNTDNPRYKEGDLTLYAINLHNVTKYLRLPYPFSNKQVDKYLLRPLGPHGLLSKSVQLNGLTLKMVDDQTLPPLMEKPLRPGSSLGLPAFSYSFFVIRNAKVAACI
T1 sequence (Q9Y251 36-109 limits assumed): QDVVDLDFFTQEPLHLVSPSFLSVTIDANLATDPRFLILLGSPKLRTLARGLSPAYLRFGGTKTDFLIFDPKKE
Put plainly: AGA*IA assay: heparanase-catalyzed fondaparinux cleavage, colorimetric (WST-1). Format: biochemical. Background: Formazan colour is commonly taken as a measure of viable cells.

The subject of assay [1] is HT1080 (human fibrosarcoma). Put plainly: SRB Cell Cytotoxicity Assay (cell proliferation, 72h). The note with it: HT-1080, 72 h, read-out: Concentration (µM) of test compounds at which the cell growth is inhibited by 50 %. HT1080. The class given is cell-based. On the procedure: (§1) SRB Cell Cytotoxicity Assay is an assay based upon the quantitative staining of cellular proteins by sulforhodamine B (SRB). This assay can be used for high-throughput drug screening ([…], Nature Protocol. 2006, 1, 112). Sulforhodamine B is an anionic aminoxanthene dye that forms an electrostatic complex with the basic amino acid residues of proteins under moderately acid conditions, which provides a sensitive linear response. […] Inhibition of cell proliferation was then measured by the classical colorimetric SRB Cell Cytotoxicity assay. Absorbance was measured by spectrophotometer at a wavelength of 510 nm and cell proliferation was determined as percent with respect to control cells (cells treated with the vehicle alone). EC50 values were then determined by GraphPad Prism.

Assay [2] concerns U2OS (human osteosarcoma). The description is as above. The class given is cell-based. As to conditions: 72 h, read-out: Concentration (µM) of test compounds at which the cell growth is inhibited by 50 %. U2OS. On the procedure: as §1
The subject of assay [3] is U87MG (human glioblastoma astrocytoma). The assay is described as above. The class given is cell-based. The note with it: U-87 MG, 72 h, read-out: Concentration (µM) of test compounds at which the cell growth is inhibited by 50 %. U87MG. The method, then: as §1
In assay [4] the test system is genes encoding for proangiogenic factors. Briefly: Real-Time Quantitative PCR in HT1080 cells, summary statement for all factors. The class given is cell-based, human. As to conditions: 2.5 µM, result in words. The method, then:
To evaluate the effect of heparanase inhibitors on the tumor transcription of genes encoding for proangiogenic factors, such as FGF1/2, VEGF, MMP-9, HSPE-1, the relative mRNA levels were analyzed by quantitative Real-Time Quantitative PCR.
To perform the assay, HT1080 (human fibrosarcoma) cells were cultured in complete medium containing 10%FCS (fetal calf serum). Cells were plated in 24-well plates and treated at fixed concentration (i.e., highest non-toxic concentration) of test compounds. After 24 h, cells were detached, collected and total RNA extracted by RNeasy Mini Kit (QIAGEN). Following reverse transcription step, FGF1/2, VEGF, MMP-9, HSPE-1 mRNA levels, were quantified by qPCR using the advanced Universal SYBR Green Supermix (Bio Rad) and ABI PRISM 7900HT Thermal Cycler System (Perkin Elmer), according to the manufacturer's instructions. Appropriate no-RT and non-template controls were included in each 96-well PCR reaction, and dissociation analysis was performed at the end of each run to confirm the specificity of the reaction. Relative levels of RNA were calculated using the ddCt method. Standard curve and sample data were run in duplicate. In Table 4 a mean value is reported. […]

This is an account of results in patent EP3381898A1, “SYMMETRICAL TRIS-ARYL-AMIDE DERIVATIVES AND THEIR USE AS ANTI-HEPARANASE” (priority 2017, dated 2018).

Like-named read-outs stand apart in the source and are kept apart here.

For `Cn1cc(NC(=O)c2ccc(Oc3ccc(C(=O)Nc4cc(C(=O)Nc5cccc(CC(=O)N[C@@H](Cc6ccccc6)C(=O)O)c5)n(C)c4)cc3)cc2)cc1C(=O)Nc1cccc(CC(=O)N[C@@H](Cc2ccccc2)C(=O)O)c1` [Compound 36e, (2S,2'S)-2,2'-((2,2'-(((4,4'-((4,4'-Oxybis(benzoyl))bis(azanediyl))bis(1-methyl-1H-pyrrole-2,2'-carbonyl))bis(azanediyl))bis(3,1-phenylene))bis(acetyl))bis(azanediyl))bis(3-phenylpropanoic acid)], the IC50 was < 500 nM at heparanase (AGA*IA screening, read-out: anti-heparanase activity); 50 to 490 nM at heparanase (Table 1, range activity classes, AGA*IA test on Fondaparinux, read-out: AGAIA assay IC50); 50 to 490 nM on heparanase (Table 2, classes as in Table 1, read-out: AGA*IA assay). The EC50 in assay [1], in assay [2] and in assay [3] was > 2.5 µM in each case. In assay [4], the “inhibition of genes expression encoding for proangiogenic factors” value is “significant inhibition”.
